Assay results: the NIST ThermoML archive (doi:10.1021/je1003065)

Assay: mn = molality of the nth substance listed, in mol/kg
Details: Liquid, Vibrating tube method

[Br-].[Li+] [lithium bromide] + CCO
Details	mass density [kg/m3]
298.15 K, 60024 kPa, m1 = 0.9499	885.07
298.15 K, 69784 kPa, m1 = 0.2335	847.83
298.15 K, 69784 kPa, m1 = 0.9499	890.31
298.15 K, 69931 kPa, m1 = 0.5972	869.87
298.15 K, 69993 kPa, m1 = 1.462	920.05
298.15 K, 79215 kPa, m1 = 0.9499	895.14
298.15 K, 79970 kPa, m1 = 2.272	969.11
298.15 K, 80014 kPa, m1 = 2.833	998.77
298.15 K, 80151 kPa, m1 = 0.5972	875.11
298.15 K, 89921 kPa, m1 = 0.2335	857.88
298.15 K, 89926 kPa, m1 = 0.9499	900.43
298.15 K, 89927 kPa, m1 = 2.833	1003.47
298.15 K, 89963 kPa, m1 = 0.5972	879.79
298.15 K, 99468 kPa, m1 = 0.2335	862.11
298.15 K, 99739 kPa, m1 = 1.462	933.99
298.15 K, 99874 kPa, m1 = 0.5972	884.17
298.15 K, 99968 kPa, m1 = 2.833	1008.08
298.15 K, 99975 kPa, m1 = 0.9499	905.24
298.16 K, 1341 kPa, m1 = 1.462	876.32
298.16 K, 9986 kPa, m1 = 2.833	958.39
298.16 K, 20192 kPa, m1 = 0.5972	838.95
298.16 K, 39784 kPa, m1 = 0.2335	830.01
298.16 K, 49924 kPa, m1 = 2.833	983.25
298.16 K, 89994 kPa, m1 = 1.462	929.76
298.17 K, 9947 kPa, m1 = 1.462	882.69
298.17 K, 59942 kPa, m1 = 0.2335	842.36
298.17 K, 69994 kPa, m1 = 3.368	1020.58
298.17 K, 80053 kPa, m1 = 1.462	925.1
298.18 K, 2703 kPa, m1 = 3.368	980.82
298.18 K, 5041 kPa, m1 = 3.368	982.47
298.18 K, 5165 kPa, m1 = 2.272	925.09
298.18 K, 9642 kPa, m1 = 2.272	928.25
298.18 K, 9735 kPa, m1 = 3.368	985.72
298.18 K, 9947 kPa, m1 = 0.5972	831.46
298.18 K, 19511 kPa, m1 = 3.368	992.17
298.18 K, 29936 kPa, m1 = 3.368	998.66
298.18 K, 40157 kPa, m1 = 3.368	1004.65
298.18 K, 49943 kPa, m1 = 3.368	1010.11
298.19 K, 2166 kPa, m1 = 2.272	922.88
298.19 K, 20358 kPa, m1 = 1.462	890.05
298.2 K, 20184 kPa, m1 = 2.272	935.31
298.2 K, 59916 kPa, m1 = 3.368	1015.42
313.09 K, 4759 kPa, m1 = 0.5972	815.39
313.11 K, 1319 kPa, m1 = 2.272	910.08
313.11 K, 2109 kPa, m1 = 1.462	864.85
313.11 K, 4863 kPa, m1 = 2.272	912.94
313.11 K, 9792 kPa, m1 = 0.5972	819.49
313.13 K, 5147 kPa, m1 = 1.462	867.25
313.13 K, 19554 kPa, m1 = 0.5972	827.15
313.14 K, 5102 kPa, m1 = 2.833	943.28
313.14 K, 9982 kPa, m1 = 2.272	916.81
313.14 K, 19956 kPa, m1 = 0.2335	804.92
313.14 K, 20135 kPa, m1 = 2.272	924.35
313.14 K, 29993 kPa, m1 = 2.272	931.18
313.14 K, 40450 kPa, m1 = 2.272	937.95
313.14 K, 50014 kPa, m1 = 0.2335	826.45
313.14 K, 59926 kPa, m1 = 2.833	978.99
313.15 K, 1021 kPa, m1 = 2.833	940.06
313.15 K, 1045 kPa, m1 = 0.9499	833.87
313.15 K, 2012 kPa, m1 = 0.2335	789.9
313.15 K, 5003 kPa, m1 = 0.9499	837.08
313.15 K, 5028 kPa, m1 = 0.2335	792.77
313.15 K, 9909 kPa, m1 = 1.462	870.96
313.15 K, 9978 kPa, m1 = 2.833	947
313.15 K, 9985 kPa, m1 = 0.9499	841.04
313.15 K, 19924 kPa, m1 = 0.9499	848.66
313.15 K, 19994 kPa, m1 = 1.462	878.53
313.15 K, 29451 kPa, m1 = 2.833	960.7
313.15 K, 29924 kPa, m1 = 0.2335	812.49
313.15 K, 29935 kPa, m1 = 0.9499	855.96
313.15 K, 29958 kPa, m1 = 0.5972	834.89
313.15 K, 29979 kPa, m1 = 1.462	885.66
313.15 K, 39844 kPa, m1 = 0.5972	841.83
313.15 K, 40021 kPa, m1 = 0.9499	862.92
313.15 K, 49925 kPa, m1 = 1.462	898.82
313.15 K, 49925 kPa, m1 = 2.272	943.67
313.15 K, 49963 kPa, m1 = 0.5972	848.54
313.15 K, 49968 kPa, m1 = 2.833	973.38
313.15 K, 50035 kPa, m1 = 0.9499	869.45
313.15 K, 59623 kPa, m1 = 1.462	904.69
313.15 K, 59831 kPa, m1 = 0.5972	854.67
313.15 K, 60002 kPa, m1 = 0.2335	832.74
313.15 K, 60047 kPa, m1 = 0.9499	875.6
313.15 K, 69784 kPa, m1 = 0.9499	881.21
313.15 K, 69784 kPa, m1 = 2.833	984.26
313.15 K, 69928 kPa, m1 = 1.462	910.56
313.15 K, 69997 kPa, m1 = 0.5972	860.59
313.15 K, 79828 kPa, m1 = 0.5972	865.9
313.15 K, 79877 kPa, m1 = 1.462	915.87
313.15 K, 79935 kPa, m1 = 0.9499	886.68
313.15 K, 80042 kPa, m1 = 0.2335	844.05
313.15 K, 89924 kPa, m1 = 0.2335	848.99
313.15 K, 89925 kPa, m1 = 2.833	994.32
313.15 K, 89926 kPa, m1 = 1.462	920.86
313.15 K, 89986 kPa, m1 = 0.9499	891.71
313.15 K, 89993 kPa, m1 = 0.5972	870.99
313.15 K, 99841 kPa, m1 = 0.5972	875.52
313.15 K, 99954 kPa, m1 = 0.9499	896.31
313.15 K, 99985 kPa, m1 = 0.2335	853.58
313.15 K, 99985 kPa, m1 = 2.833	999.09
313.16 K, 10023 kPa, m1 = 0.2335	796.94
313.16 K, 19926 kPa, m1 = 2.833	954.23
313.16 K, 39715 kPa, m1 = 1.462	892.26
313.16 K, 40032 kPa, m1 = 0.2335	819.73
313.16 K, 59995 kPa, m1 = 2.272	949.4
